Laboratory results reported in patent US20070116781A1, “Hydrogen Cyanamide Pesticide Formulations” (priority 2005, published 2007).

Legend:
sicklepod [1] = assay: Herbicidal activity, phosphate-free cyanamide and propionic acid, post-emergence, uncovered pots; type: in vivo, Senna obtusifolia
Source text: The procedures in this example differed from those of Example 2, however, by the use of hydrogen cyanamide crystals free of phosphate ion to prepare the aqueous hydrogen cyanamide solution, by the use of post-emergence application, and by the omission of any covering of the pots during any part of the test. Observations were made for total weed growth, and individual observations were also made for yellow nutsedge, crabgrass, sicklepod, and momingglory. Stock solutions of hydrogen cyanamide at 1.25% by weight and propionic acid at 5.0% by weight, both in water, were prepared as before, except that the hydrogen cyanamide solution, as noted above, was prepared by dissolving hydrogen cyanamide crystals in water in the absence of phosphate ion. […] The weeds were allowed to grow for three weeks before the treatment chemicals were applied. […] Data analyses were performed in the same manner as Examples 1 and 2. Table IX lists the results in weeds per pot for all weeds, Table X for yellow nutsedge, Table XI for crabgrass, Table XII for sicklepod, and Table XIII for morningglory, all both with propionic acid alone at various application rates and with […]

yellow nutsedge [2] = assay: Herbicidal activity, cyanamide and citric acid, pre-emergence, covered pots; type: in vivo, Cyperus esculentus
Description: (§1) The weeds used in these tests were grown from a standard weed seed pack of common annual and perennial weeds representing an extreme weed situation. The weeds included crabgrass (Digitaria sanguinalis), yellow nutsedge (Cyperus esculentus), […] (Ipomoea spp.), pigweed (Amaranthus spp.), and other annual weeds. Observations of the effects on the weed population as a whole were made, and individual observations were made for crabgrass, yellow nutsedge, sicklepod, morningglory, and pigweed. Stock solutions of hydrogen cyanamide at 1.25% by weight and citric acid at 5.0% by weight, both in water, were prepared, the hydrogen cyanamide from a phosphate-buffered 50% aqueous solution. […] Data analyses were performed in the same manner as Example 1. The results expressed in weeds per pot are listed in Table XIV for all weeds, Table XV for crabgrass, Table XVI for yellow nutsedge, Table XVII for sicklepod, Table XVIII for morningglory, and Table XIX for pigweed, all at various application rates for hydrogen cyanamide, with and without citric acid.

crabgrass = assay: Herbicidal activity, cyanamide and propionic acid, pre-emergence, covered pots; type: in vivo, Digitaria sanguinalis
Description: (§2) The weeds used in these tests were grown from a standard weed seed pack of common annual and perennial weeds representing an extreme weed situation. The weeds included yellow nutsedge (Cyperus esculentus), crabgrass (Digitaria sanguinalis), pigweed (Amaranthus spp.), momingglory (Ipomoea spp.), sicklepod (Senna obtusifolia) and other annual weeds. Observations of the effects on the weed population as a whole were made, and individual observations were made for yellow nutsedge, crabgrass, and sicklepod. Stock solutions of hydrogen cyanamide at 1.25% by weight and propionic acid at 5.0% by weight, both in water, were prepared, the hydrogen cyanamide from a phosphate-buffered 50% aqueous solution. […] Data analyses were performed in the same manner as Example 1. The results expressed in weeds per pot are listed in Table V for all weeds, Table VI for yellow nutsedge, Table VII for crabgrass, and Table VIII for sicklepod, all at various application rates for both hydrogen cyanamide and propionic acid.

morningglory = assay: Herbicidal activity, cyanamide and citric acid, pre-emergence, covered pots; type: in vivo, Ipomoea spp.
Description: as §1

sicklepod [3] = assay: Herbicidal activity, cyanamide and propionic acid, pre-emergence, covered pots; type: in vivo, Senna obtusifolia
Description: as §2

all weeds = assay: as above; type: in vivo
Description: as §2

yellow nutsedge [4] = assay: as above; type: in vivo, Cyperus esculentus
Description: as §2

[5] = 13 d after treatment, cyanamide 50 mg/kg soil
[6] = 13 d after treatment, cyanamide 100 mg/kg soil
[7] = 13 d after treatment, cyanamide 150 mg/kg soil
[8] = 13 d after treatment, cyanamide 200 mg/kg soil
[9] = 13 d after treatment, cyanamide 250 mg/kg soil
[10] = 19 d after treatment, cyanamide 50 mg/kg soil
[11] = 19 d after treatment, cyanamide 100 mg/kg soil
[12] = 19 d after treatment, cyanamide 150 mg/kg soil
[13] = 19 d after treatment, cyanamide 200 mg/kg soil
[14] = 19 d after treatment, cyanamide 250 mg/kg soil
[15] = 26 d after treatment, cyanamide 50 mg/kg soil
[16] = 26 d after treatment, cyanamide 100 mg/kg soil
[17] = 26 d after treatment, cyanamide 150 mg/kg soil
[18] = 26 d after treatment, cyanamide 200 mg/kg soil
[19] = 26 d after treatment, cyanamide 250 mg/kg soil
[20] = 8 d after treatment, cyanamide 75 mg/kg soil
[21] = 8 d after treatment, cyanamide 150 mg/kg soil
[22] = 14 d after treatment, cyanamide 75 mg/kg soil
[23] = 14 d after treatment, cyanamide 150 mg/kg soil
[24] = 20 d after treatment, cyanamide 75 mg/kg soil
[25] = 20 d after treatment, cyanamide 150 mg/kg soil
[26] = 27 d after treatment, cyanamide 75 mg/kg soil
[27] = 27 d after treatment, cyanamide 150 mg/kg soil

CCC(=O)O [C2H5CO2H, propionic acid]
Weeds Per Pot: Sicklepod (sicklepod [1]; 6 d after treatment, C2H5CO2H 100 mg/kg soil): 3.1 | Weeds Per Pot: Sicklepod (sicklepod [1]; 6 d after treatment, C2H5CO2H 200 mg/kg soil): 1.3 | Weeds Per Pot: Sicklepod (sicklepod [1]; 6 d after treatment, C2H5CO2H 300 mg/kg soil): 0.9 | Weeds Per Pot: Sicklepod (sicklepod [1]; 6 d after treatment, C2H5CO2H 400 mg/kg soil): 0.4 | Weeds Per Pot: Sicklepod (sicklepod [1]; 6 d after treatment, C2H5CO2H 500 mg/kg soil): 0.7 | Weeds Per Pot: Sicklepod (sicklepod [1]; 13 d after treatment, C2H5CO2H 100 mg/kg soil): 3.6 | Weeds Per Pot: Sicklepod (sicklepod [1]; 13 d after treatment, C2H5CO2H 200 mg/kg soil): 2.4 | Weeds Per Pot: Sicklepod (sicklepod [1]; 13 d after treatment, C2H5CO2H 300 mg/kg soil): 1.4 | Weeds Per Pot: Sicklepod (sicklepod [1]; 13 d after treatment, C2H5CO2H 400 mg/kg soil): 1.6 | Weeds Per Pot: Sicklepod (sicklepod [1]; 13 d after treatment, C2H5CO2H 500 mg/kg soil): 2 | Weeds Per Pot: Sicklepod (sicklepod [1]; 20 d after treatment, C2H5CO2H 100 mg/kg soil): 3.1 | Weeds Per Pot: Sicklepod (sicklepod [1]; 20 d after treatment, C2H5CO2H 200 mg/kg soil): 2.3 | Weeds Per Pot: Sicklepod (sicklepod [1]; 20 d after treatment, C2H5CO2H 300 mg/kg soil): 1.9 | Weeds Per Pot: Sicklepod (sicklepod [1]; 20 d after treatment, C2H5CO2H 400 mg/kg soil): 1.9 | Weeds Per Pot: Sicklepod (sicklepod [1]; 20 d after treatment, C2H5CO2H 500 mg/kg soil): 2.1

N#CN [Cyanamide, hydrogen cyanamide]
Weeds Per Pot: Yellow Nutsedge (yellow nutsedge [2]; [5]): 0.9 | Weeds Per Pot: Yellow Nutsedge (yellow nutsedge [2]; [6]): 0.4 | Weeds Per Pot: Yellow Nutsedge (yellow nutsedge [2]; [7]): 0.1 | Weeds Per Pot: Yellow Nutsedge (yellow nutsedge [2]; [8]): 0 | Weeds Per Pot: Yellow Nutsedge (yellow nutsedge [2]; [9]): 0 | Weeds Per Pot: Yellow Nutsedge (yellow nutsedge [2]; [10]): 2.4 | Weeds Per Pot: Yellow Nutsedge (yellow nutsedge [2]; [11]): 0.6 | Weeds Per Pot: Yellow Nutsedge (yellow nutsedge [2]; [12]): 0.6 | Weeds Per Pot: Yellow Nutsedge (yellow nutsedge [2]; [13]): 0 | Weeds Per Pot: Yellow Nutsedge (yellow nutsedge [2]; [14]): 0 | Weeds Per Pot: Yellow Nutsedge (yellow nutsedge [2]; [15]): 2.9 | Weeds Per Pot: Yellow Nutsedge (yellow nutsedge [2]; [16]): 1.7 | Weeds Per Pot: Yellow Nutsedge (yellow nutsedge [2]; [17]): 1.0 | Weeds Per Pot: Yellow Nutsedge (yellow nutsedge [2]; [18]): 0 | Weeds Per Pot: Yellow Nutsedge (yellow nutsedge [2]; [19]): 0 | Weeds Per Pot: Crabgrass (crabgrass; [20]): 0 | Weeds Per Pot: Crabgrass (crabgrass; [21]): 0 | Weeds Per Pot: Crabgrass (crabgrass; [22]): 3.3 | Weeds Per Pot: Crabgrass (crabgrass; [23]): 0 | Weeds Per Pot: Crabgrass (crabgrass; [24]): 8.6 | Weeds Per Pot: Crabgrass (crabgrass; [25]): 3.7 | Weeds Per Pot: Crabgrass (crabgrass; [26]): 7.7 | Weeds Per Pot: Crabgrass (crabgrass; [27]): 4 | Weeds Per Pot: Morningglory (morningglory; [5]): 0 | Weeds Per Pot: Morningglory (morningglory; [6]): 0 | Weeds Per Pot: Morningglory (morningglory; [7]): 0 | Weeds Per Pot: Morningglory (morningglory; [8]): 0 | Weeds Per Pot: Morningglory (morningglory; [9]): 0 | Weeds Per Pot: Morningglory (morningglory; [10]): 0 | Weeds Per Pot: Morningglory (morningglory; [11]): 0 | Weeds Per Pot: Morningglory (morningglory; [12]): 0 | Weeds Per Pot: Morningglory (morningglory; [13]): 0 | Weeds Per Pot: Morningglory (morningglory; [14]): 0 | Weeds Per Pot: Morningglory (morningglory; [15]): 1.6 | Weeds Per Pot: Morningglory (morningglory; [16]): 0.7 | Weeds Per Pot: Morningglory (morningglory; [17]): 0.4 | Weeds Per Pot: Morningglory (morningglory; [18]): 0.3 | Weeds Per Pot: Morningglory (morningglory; [19]): 0.1 | Weeds Per Pot: Sicklepod (sicklepod [3]; [20]): 1 | Weeds Per Pot: Sicklepod (sicklepod [3]; [21]): 0.4 | Weeds Per Pot: Sicklepod (sicklepod [3]; [22]): 1.9 | Weeds Per Pot: Sicklepod (sicklepod [3]; [23]): 2.1 | Weeds Per Pot: Sicklepod (sicklepod [3]; [24]): 2 | Weeds Per Pot: Sicklepod (sicklepod [3]; [25]): 2.7 | Weeds Per Pot: Sicklepod (sicklepod [3]; [26]): 2.4 | Weeds Per Pot: Sicklepod (sicklepod [3]; [27]): 3.1 | Weeds Per Pot: All Weeds (all weeds; [20]): 2.6 | Weeds Per Pot: All Weeds (all weeds; [21]): 0.6 | Weeds Per Pot: All Weeds (all weeds; [22]): 8.7 | Weeds Per Pot: All Weeds (all weeds; [23]): 4.6 | Weeds Per Pot: All Weeds (all weeds; [24]): 15.1 | Weeds Per Pot: All Weeds (all weeds; [25]): 9.9 | Weeds Per Pot: All Weeds (all weeds; [26]): 17 | Weeds Per Pot: All Weeds (all weeds; [27]): 13.3 | Weeds Per Pot: Yellow Nutsedge (yellow nutsedge [4]; [20]): 1.4 | Weeds Per Pot: Yellow Nutsedge (yellow nutsedge [4]; [21]): 0.1 | Weeds Per Pot: Yellow Nutsedge (yellow nutsedge [4]; [22]): 3.6 | Weeds Per Pot: Yellow Nutsedge (yellow nutsedge [4]; [23]): 2.4 | Weeds Per Pot: Yellow Nutsedge (yellow nutsedge [4]; [24]): 4.6 | Weeds Per Pot: Yellow Nutsedge (yellow nutsedge [4]; [25]): 3.4 | Weeds Per Pot: Yellow Nutsedge (yellow nutsedge [4]; [26]): 6.9 | Weeds Per Pot: Yellow Nutsedge (yellow nutsedge [4]; [27]): 6.1 | Weeds Per Pot: Sicklepod (sicklepod [1]; 6 d after treatment, cyanamide 150 mg/kg soil): 0.6 | Weeds Per Pot: Sicklepod (sicklepod [1]; [7]): 1.4 | Weeds Per Pot: Sicklepod (sicklepod [1]; [25]): 1 | Sicklepod weeds per pot (sicklepod [1]; hydrogen cyanamide 125 mg/kg of soil alone, all intervals): about one or fewer sicklepod weeds per pot
